How the values were obtained:
[1] = human, in vivo
[2] = system: patients with Wilson disease (WD); assay: Study 301: daily mean AUEC of plasma directly measured non-ceruloplasmin-bound copper (dNCC), copper mobilization; type: in vivo, human; conditions: for Mean Daily dNCC AUEC0-48 w, LSM: ANCOVA; for Mean Daily dNCC AUEC0-48 w, LSM / Mean Daily dNCC AUEC0-48 w, Mean: multiple imputation; for Mean Daily dNCC AUEC0-48 w, Mean: Full Analysis Set; for Mean Daily dNCC AUEC0-48 w, Between Group LSM Diff / Mean Daily dNCC AUEC0-48 w, Within Group LSM: lower block of Table 5
Description: FIG. 1 provides a schematic view of the study design. […] This study is referred throughout as Study 301.
The primary endpoint integrated copper mobilization and sequestration (i.e., copper control) throughout the 48-week Primary Treatment Period by assessment of daily mean area under the effect-time curve (AUEC) of directly measured non-ceruloplasmin-bound copper (dNCC) concentration. […] Measurement of dNCC in plasma is highly sensitive and accurate, requiring no special formulas or assumptions. As proposed, dNCC AUEC0-48 W is an indirect measure of copper mobilization and sequestration.
This assessment is also applicable to SoC treatments. In addition, plasma Cp, CpC, plasma total copper, and LBC were measured with AUEC calculated for plasma total copper and LBC.
The AUEC for dNCC concentration was calculated using the trapezoidal rule, and then divided by number of days to yield a mean daily AUEC plasma dNCC concentration from baseline to Week 48 (expressed as μmol/L and described as AUEC0-48 W).
Tests were performed at a significance level of 0.05 (2-sided).

[3] = system: patients with Wilson disease (WD); assay: Clinical Global Impression-Improvement scale (CGI-I); type: in vivo, human; conditions: for Transformed CGI-I (−3 to 3), LSM / Transformed CGI-I (−3 to 3), Mean: Study 301 TTM long term set
Description: Clinical Global Impression-[…]: The Clinical Global Impression (CGI) rating scales were commonly used measures of symptom severity, treatment response, and the efficacy of treatments in treatment studies of adult and pediatric patients with mental disorders.
While transformed CGI-I (TCGI-I) assesses how the WD patients' condition changed compared to baseline, CGI-I may indicate the overall clinical improvement of the patients in the study compared to baseline for each treatment arm.

[4] = human, in vivo; remark: listed apart in the source
Description: Pharmacokinetics: Blood samples for PK analysis were collected to measure plasma total molybdenum and plasma ultrafiltrate (PUF) molybdenum.

[5] = system: patients with Wilson disease (WD); conditions: FIG. 23; TTM versus SoC chelator therapy
Description: Urine samples were collected for analysis of urine copper and molybdenum.

[6] = system: patients with Wilson disease (WD); conditions: in vivo
[7] = Subpopulation E, Week 48, TTM N=78, SoC N=39

With bis-choline tetrathiomolybdate [TTM] the “effect of age on plasma total molybdenum clearance” value [1] was “not a significant covariate”, the “Mean Daily dNCC AUEC0-48 w, LSM Diff (TTM-SoC)” value ([2]; Cohort 1) was 1.64 µmol/L and the “Mean Daily dNCC AUEC0-48 w, LSM” value ([2]; Cohort 1) was 2.50 µmol/L. The “Mean Daily dNCC AUEC0-48 w, Mean” value ([2]; Cohort 1) was 2.68 µmol/L, the “Mean Daily dNCC AUEC0-48 w, Between Group LSM Diff” value ([2]; Cohort 1) was 1.72 µmol/L and the “Mean Daily dNCC AUEC0-48 w, Within Group LSM” value ([2]; Cohort 1) was 2.59 µmol/L. For the same substance, the “Mean Daily dNCC AUEC0-48 w, LSM Diff (TTM-SoC)” value ([2]; Cohort 2) was 3.79 µmol/L, the “Mean Daily dNCC AUEC0-48 w, LSM” value ([2]; Cohort 2) was 4.76 µmol/L and the “Mean Daily dNCC AUEC0-48 w, Mean” value ([2]; Cohort 2) was 4.58 µmol/L. For the same substance, the “Mean Daily dNCC AUEC0-48 w, Between Group LSM Diff” value ([2]; Cohort 2) was 3.68 µmol/L, the “Mean Daily dNCC AUEC0-48 w, Within Group LSM” value ([2]; Cohort 2) was 4.64 µmol/L and the “Mean Daily dNCC AUEC0-48 w, LSM Diff (TTM-SoC)” value ([2]; Overall) was 2.18 µmol/L. The “Mean Daily dNCC AUEC0-48 w, LSM” value ([2]; Overall) was 3.18 µmol/L, the “Mean Daily dNCC AUEC0-48 w, Mean” value ([2]; Overall) was 3.12 µmol/L and the “Mean Daily dNCC AUEC0-48 w, Between Group LSM Diff” value ([2]; Overall) was 2.12 µmol/L. The “Mean Daily dNCC AUEC0-48 w, Within Group LSM” value ([2]; Overall) was 3.06 µmol/L, the “dNCC area under the effect curve, LSM difference (SE) TTM versus SoC” value ([2]; W0-W48, cohort 1 incomplete response or intolerant to prior SoC, p<0.0001) was 1.64 (0.297) and the “T-CGI-I (−3 to 3, −3 is very much improved) at 48 weeks, LSM” value ([3]; Study 301 Full Analysis Set) was −0.7. For the same substance, the “T-CGI-I (−3 to 3, −3 is very much improved) at 48 weeks, Mean” value ([3]; Study 301 Full Analysis Set) was −0.7, the “Transformed Global Improvement (CGI-I), Change from Baseline, LSM” value ([3]; Subpopulation E, Week 48) was −0.7 and the “Transformed Global Improvement (CGI-I), Change from Baseline, LSM Diff (TTM vs SoC)” value ([3]; Subpopulation E, Week 48) was −0.5. For the same substance, the “Transformed Global Improvement (CGI-I), Change from Baseline, Max” value [3, 7] was 1, the “Transformed Global Improvement (CGI-I), Change from Baseline, Mean” value [3, 7] was −0.7 and the “Transformed Global Improvement (CGI-I), Change from Baseline, Median” value [3, 7] was 0.0. For the same substance, the “Transformed Global Improvement (CGI-I), Change from Baseline, Min” value [3, 7] was −3,, the “Transformed Global Improvement (CGI-I), Change from Baseline, Q1” value [3, 7] was −1.0, and the “Transformed Global Improvement (CGI-I), Change from Baseline, Q3” value [3, 7] was 0.0. For the same substance, the “T-CGI-I, Difference at 48 weeks, LSM” value ([3]; TTM vs SoC, P 0.0316) was −0.3, the “CGI-I, LSM difference (SE) TTM versus SoC” value ([3]; W0-W48, cohort 1 incomplete response or intolerant, p=0.0051) was −0.4 (0.15) and the “Transformed CGI-I (−3 to 3), LSM” value ([3]; Week 24) was −0.6. The “Transformed CGI-I (−3 to 3), Mean” value ([3]; Week 24) was −0.5, the “Transformed CGI-I (−3 to 3), LSM” value ([3]; Week 48) was −0.8 and the “Transformed CGI-I (−3 to 3), Mean” value ([3]; Week 48) was −0.7. The “Transformed CGI-I (−3 to 3), LSM” value ([3]; Week 72) was −0.6, the “Transformed CGI-I (−3 to 3), Mean” value ([3]; Week 72) was −0.5 and the “Transformed CGI-I (−3 to 3), LSM” value ([3]; Week 96) was −0.6. For the same substance, the “Transformed CGI-I (−3 to 3), Mean” value ([3]; Week 96) was −0.5, the “Transformed CGI-I (−3 to 3), LSM” value ([3]; Week 120) was −0.7 and the “Transformed CGI-I (−3 to 3), Mean” value ([3]; Week 120) was −0.7. For the same substance, the “Transformed CGI-I (−3 to 3), LSM” value ([3]; Week 144) was −0.8, the “Transformed CGI-I (−3 to 3), Mean” value ([3]; Week 144) was −0.7 and the “Daily Mean AUC(0-48 weeks) PUF Mo, Mean” value [4] was 0.1 mmol/L. For the same substance, the 24-hour urinary copper [5] was “lower with TTM than SoC chelator therapy”, the “ALT increased AE, % participants” value [6] was 14.6% and the “ALT increased AE, E events” value [6] was 25. For the same substance, the “ALT increased AE, N participants” value [6] was 20, the “ALT increased adverse event” value [6] was 14.6% and the “AST increased AE, % participants” value [6] was 2.9%. The “AST increased AE, E events” value [6] was 4, the “AST increased AE, N participants” value [6] was 4 and the “GGT increased AE, % participants” value [6] was 2.2%. The “GGT increased AE, E events” value [6] was 3, the “GGT increased AE, N participants” value [6] was 3 and the “Hepatic enzyme increased AE, N participants” value [6] was 3. For the same substance, the “Hepatic function abnormal AE, % participants” value [6] was 2.2%, the “Hepatic function abnormal AE, E events” value [6] was 3 and the “Hepatic function abnormal AE, N participants” value [6] was 3. For the same substance, the “Hyperbilirubinemia AE, % participants” value [6] was 0.7%, the “Hyperbilirubinemia AE, E events” value [6] was 1 and the “Hyperbilirubinemia AE, N participants” value [6] was 1. For the same substance, the “Hypertransaminasemia AE, % participants” value [6] was 1.5%, the “Hypertransaminasemia AE, E events” value [6] was 4 and the “Hypertransaminasemia AE, N participants” value [6] was 2. The “Jaundice AE, % participants” value [6] was 0.7%, the “Jaundice AE, E events” value [6] was 1 and the “Jaundice AE, N participants” value [6] was 1. The “LFT abnormal AE, % participants” value [6] was 1.5%, the “LFT abnormal AE, E events” value [6] was 2 and the “LFT abnormal AE, N participants” value [6] was 2. For the same substance, the “LFT increased AE, % participants” value [6] was 2.9%, the “LFT increased AE, E events” value [6] was 4 and the “LFT increased AE, N participants” value [6] was 4. The “Liver disorder AE, % participants” value [6] was 0.7%, the “Liver disorder AE, E events” value [6] was 1 and the “Liver disorder AE, N participants” value [6] was 1. The “participants with ALT>3×ULN but≤5×ULN” value [6] was 10.2%, the “participants with ALT>5×ULN but≤10×ULN” value [6] was 7.3% and the “participants with ALT>10×ULN but≤20×ULN” value [6] was 0.7%. For the same substance, the “participants with ALT>20×ULN” value [6] was 2.9% and the “participants with post-baseline elevation of ALT ≥3× ULN” value [6] was 29 participants.
